Experimental data from patent publication US7153883B2, “Carboxylic acids and carboxylic acid isosteres of N-heterocyclic compounds” (GPI NIL Holdings Inc., priority 1998, dated 2006).

Columns and labels:
[1] = tested on: retinal ganglion cell axons; assay: Protection of retinal ganglion cell axons 14 days after optic nerve transection (RT97); assay type: in vivo, Sprague Dawley rats; details: ± SEM
Description: Efficacy of representative compounds from different immunophilin ligand series in protecting retinal ganglion cell axons from degeneration following optic nerve transection is set forth in Table VI.

[2] = Clearance; assay type: in vitro ADME
[3] = tested on: dopaminergic neurons; assay: MPTP model of Parkinson's Disease in mice (TH immunostaining); assay type: in vivo, CD1 white mice; details: Mus musculus, Neuron, po; 10 mg/kg p.o.; MPTP-lesioned mice; read-out: Post-MPTP % TH RECOVERY
Procedure: MPTP lesioning of dopaminergic neurons in mice was used as an animal model of Parkinson's Disease. Four week old male CD1 white mice were dosed i.p. with 30 mg/kg of MPTP for 5 days. […] At 18 days following MPTP treatment, the animals were sacrificed and the striata were dissected and homogenized. Immunostaining was performed on saggital and coronal brain sections using anti-tyrosine hydroxylase Ig to quantitate survival and recovery of dopaminergic neurons. In animals treated with MPTP and vehicle, a substantial loss of functional dopaminergic terminals was observed as compared to non-lesioned animals. In another protocol, test compounds were administered only subsequent to MPTP-induced lesioning. Thus, after animals were treated with MPTP for 5 days, an additional 3 days passed before beginning oral drug treatment on day 8. […] On day 18, the animals were sacrificed and analyzed as described above.
Table V presents the percent recovery of dopaminergic neurons in the first (concurrent dosing) paradigm in animals receiving carboxylic acid or carboxylic acid isostere compounds of the present invention.
Percent striatal innervation density was quantitated in brain sections with an anti-tyrosine hydroxylase immunoglobulin, which is indicative of functional dopaminergic neurons. The striatal innervation density of 23% for animals pretreated with only a vehicle and administered a vehicle orally during treatment, is indicative of normal non-lesioned striatal tissue. Striatal innervation density is reduced to 5% for animals pretreated with MPTP and administered a vehicle orally during treatment, and is indicative of MPTP-induced lesioning.

[4] = tested on: hair growth; assay: In vivo hair generation test with C57 Black 6 mice; details: topical, 1 μmole per milliliter three times per week, evaluated after 14 days
Procedure: Care was taken not to nick or cause abrasion to the underlaying dermal layers. The animals were in anagen growth phase, as indicated by the pinkish color of the skin. Referring now to FIG. 2, four animals per group were treated by topical administration with 20% propylene glycol vehicle (FIG. 2), or neuroimmunophilin FKBP ligands dissolved in the vehicle. The animals were treated with vehicle or neuroimmunophilin ligands every 48 hours (3 applications total over the course of 5 days) and the hair growth was allowed to proceed for 6 weeks. Hair growth was quantitated by the percent of shaved area covered by new hair growth during this time period.
Care was taken not to nick or cause abrasion to the underlying dermal layers. Compounds at a concentration of 1 μmole per milliliter were carefully applied to the shaved area of the mice (5 mice per group) three times per week. Hair growth was evaluated 14 days after initiation of drug treatment. The relative scale for assessing hair growth is as follows: • 0=no growth; • 1=beginning of growth in small tufts; • 2=hair growth covering over <25% of shaved area; • 3=hair growth covering over >25% of shaved area, but less than 50% of shaved area; • 4=hair growth covering over >50% of shaved area, but less than 75% of shaved area; • 5=complete hair growth of shaved area.

[5] = tested on: retinal ganglion cells; assay: Retinal ischemia: ganglion cell, optic nerve axon and myelin degeneration; assay type: in vivo, rats
Description: Retinal ganglion cells were retrogradely labeled in adult rats by bilateral injection of fluorogold in their lateral geniculate nuclei. Labeled ganglion cells in the normal rat retina appear as white profiles against the dark background (FIG. 4A). Complete retinal ischemia was produced by infusing normal saline solution into the retinal vitreous cavity of each eye until the intraocular pressure exceeded arterial blood pressure. 28 days after the ischemic episode extensive degeneration of retinal ganglion cell was evidenced by massive reduction in the density of fluorogold labeled cells (FIG. 4B).

[6] = tested on: spatial memory; assay: Morris watermaze spatial learning and memory in aged rodents; assay type: in vivo, C57BL/6N-Nia mice; details: 10 mg/kg daily, retention testing after 3 weeks of dosing; aged impaired mice
Description: The Morris watermaze is widely used for assessing spatial memory formation and retention in experimental animals. The test depends on the animal's ability to utilize spatial visual information in order to locate a submerged escape platform in a water tank. It is important that the tank itself be as devoid of specific visual features as possible—thus, it is always circular in shape, the sides are kept smooth and in uniform dull colors, and the water is rendered opaque with nontoxic watercolour pigment or powdered milk. This is to ensure that the animal navigates only by the use of more distant visual cues, or by the use of intra-maze cues specifically provided by the experimenter. The animals' path, speed, and swim time are tracked with a ceiling camera for later computerized analysis. Over the course of several successive trials, spatial learning can therefore be defined as a drop of distance swum, or time elapsed, from placement in the tank until escape onto the invisible platform. The procedure involved using three-month old (young) and 18–19 month old male C57BL/6N-Nia (aged) mice which habituated to the well known and conventional Morris watermaze during a 4 trials/day, 3–4 day visible platform training phase. […] Swim Distances (cm) were analyzed in a 7×5 ANOVA including Groups and Blocks (1–5) as factors in the analysis, treating Blocks as a repeated measure.

[7] = tested on: retina; assay: Streptozotocin induced diabetes: retinal neovascularization and neuron loss; assay type: in vivo; details: 28 day treatment beginning 8 weeks after onset of diabetes
[8] = tested on: retinal ganglion cells and optic nerve axons; assay: Optic nerve transection: retinal ganglion cell survival, optic nerve axons and myelin 90 days after transection; assay type: in vivo, Sprague Dawley rats
Description: Transection of the mammalian optic nerve results in a brief period of abortive regeneration, but the majority of axotomized neurons die and the axons from many persisting ganglion cells die back beyond the optic nerve head. […]
All eyes and optic nerves stumps were removed.

[9] = 28 days after 1 hour retinal ischemic episode
[10] = 10 mg/kg/day s.c. for 28 days, 90 days after transection
[11] = treatment first 14 days, 90 days after transection
[12] = treatment first 28 days, 90 days after transection

For `O=C(SCCCc1ccccc1)[C@@H]1CCCN1S(=O)(=O)Cc1ccccc1` [C], the “RT97 + RGC axon density 14 days after ON transection (% ON axons rescued)” value [1] was 60.4%±3.1%SEM and the Clearance [2] was 31.1 µL/min.
Work on `CCC(C)(C)C(=O)C(=O)N1CCC[C@H]1CO` [Compound 26, (2S)-1-(1,2-dioxo-3,3-dimethylpentyl)-2-hydroxymethyl pyrrolidine] yielded a percent TH recovery after MPTP at 10 mg/kg [3] of 23.2%.
With `CCC(C)(C)C(=O)C(=O)N1CCC[C@H]1CC#N` [Compound 28, 2-[1-(3,3-Dimethyl-2-oxopentanoyl)pyrrolidin-2-yl]ethanenitrile] the percent TH recovery after MPTP at 10 mg/kg [3] was 15.7% and the melting point was 91 to 93 °C.
For `CCC(C)(C)C(=O)C(=O)N1CCC[C@H]1C#N` [Compound 29, (2S)-1-(1,2-dioxo-3,3-dimethylpentyl)-2-pyrrolidinecarbonitrile], the percent TH recovery after MPTP at 10 mg/kg [3] was 34.1%.
Work on `CCC(C)(C)C(=O)C(=O)N1CCC[C@H]1c1nnn[nH]1` [Compound 30, (2S)-1-(1,2-dioxo-3,3-dimethylpentyl)-2-pyrrolidinetetrazole] yielded a percent TH recovery after MPTP at 10 mg/kg [3] of 19.6%.
For `CCC(C)(C)C(=O)C(=O)N1CCCC[C@H]1C(N)=O` [Compound 35, (2S)-1-(1,2-dioxo-3,3-dimethylpentyl)-2-aminocarbonyl piperidine], the percent TH recovery after MPTP at 10 mg/kg [3] was 46.5% and the “hair growth on shaved area” value [4] was “dramatic hair growth”.
In the case of `CCC(C)(C)C(=O)C(=O)N1CCC[C@H]1C(=O)O` [Compound 137, (2S)-1-(1,2-dioxo-3,3-dimethylpentyl)-2-pyrrolidinecarboxylic acid], the percent TH recovery after MPTP at 10 mg/kg [3] is reported as 26.7% and the “hair growth on shaved area” value [4] is reported as “dramatic hair growth”.
`CCC(C)(C)C(=O)C(=O)N1CCC[C@H]1C(=O)NNC(=O)c1cccs1` [Compound 140, [1-(3,3-Dimethyl-2-oxopentanoyl)pyrrolidin-2-yl]-N-(2-thienylcarbonylamino)-formamide] showed a percent TH recovery after MPTP at 10 mg/kg [3] of 10.4% and a melting point of 72 to 74 °C.
With `CCC(C)(C)C(=O)C(=O)N1CCC[C@H]1COc1ccc([N+](=O)[O-])cc1` [Compound 141, 3,3-Dimethyl-1-{2-[(4-nitrophenoxy)methyl]pyrrolidinyl}pentane-1,2-dione] the percent TH recovery after MPTP at 10 mg/kg [3] was 26.3%.
`CCC(C)(C)C(=O)C(=O)N1CCC[C@H]1C(=O)NNS(=O)(=O)c1ccc(C)cc1` [Compound 146, [1-(3,3-Dimethyl-2-oxopentanoyl)pyrrolidin-2-yl]-N-{[(4-methylphenyl)sulfonyl]-amino}formamide] showed a percent TH recovery after MPTP at 10 mg/kg [3] of 40.6% and a melting point of 59 to 61 °C.
`CCC(C)(C)C(=O)C(=O)N1CCC[C@H]1C(=O)NNS(=O)(=O)c1ccc(F)cc1` [Compound 147] gave a melting point of 57 to 60 °C.
For `CCC(C)(C)C(=O)C(=O)N1CCC[C@H]1c1nnc(S)[nH]1` [Compound 148, (2S)-3,3-Dimethyl-1-[2-(5-sulfanyl(4H-1,2,4-triazol-3-yl))pyrrolidinyl]-pentane-1,2-dione], the percent TH recovery after MPTP at 10 mg/kg [3] was 21.4%.
`CCC(C)(C)C(=O)C(=O)N1CCCCC1C(=O)OC(CCc1ccccc1)CCc1ccccc1` (stereo not shown) [E] showed a Clearance [2] of 41.8 µL/min.
With `CCC(C)(C)C(=O)C(=O)N1CCC[C@H]1C(=O)OCCCc1cccnc1` [GPI 1046] the “protection of vulnerable ganglion cell population” value ([5]; 10 mg/kg s.c. 1 hour prior to ischemia and 10 mg/kg/day next four days, 28 days after ischemia) was “noticeable protection of a large proportion”, the “density of degenerating myelin figures” value [5, 9] was “dramatically decreased” and the “optic nerve axon degeneration” value [5, 9] was “protected the majority of optic nerve axons from degeneration”. For the same molecule, the “RT97 + RGC axon density 14 days after ON transection (% ON axons rescued)” value [1] was 60.5%±3.9%SEM, the “spatial memory performance (retention testing, swim distance)” value [6] was “significantly enhanced spatial memory performance” and the “neovascularization in the PR, ONL, OPL and INL” value [7] was “reduced neovascularization”. The “neuronal loss in the ONL” value [7] was “did not appear to protect against neuronal loss in the ONL”, the “loss of neurons in the INL and GCL” value ([7]; vs streptozotocin/vehicle) was “appeared to decrease the loss of neurons” and the Clearance [2] was 63.8 µL/min. The “axons of protected neurons in the proximal stump” value [8, 10] was “preserved the axons of virtually all protected neurons”, the “ganglion cell population spared” value [8, 10] was 25% and the “density of large, medium and small caliber optic nerve axons” value ([8]; 28 day treatment) was “significant increase”. For the same molecule, the “density of myelin, distal stump” value ([8]; treatment first 14 days) was “slightly increase the density of myelin”, the “shrinkage of the distal stump” value ([8]; treatment first 14 days) was “did not protect against shrinkage of the distal stump” and the “protection of optic nerve axons, proximal stump” value [8, 11] was 5.3%. The “recovery in myelin density, proximal stump” value [8, 11] was 1.6%, the “cross sectional shrinkage of the distal stump” value ([8]; treatment first 28 days) was “prevented cross sectional shrinkage” and the “protection of the vulnerable ganglion cell population” value ([8]; treatment first 28 days after transection, 90 days after transection) was 12.6%. The “myelin levels in distal stump, % of normal levels” value [8, 12] was 99%, the “recovery of myelin density, proximal stump” value [8, 12] was 70% and the “density of retinal ganglion cells that survived” value ([8]; treatment for 14 days, 90 days after transection) was “small but not significant increase”. The “spared retinal ganglion cells with protected optic nerve axons” value ([8]; treatment for 28 days, 90 days after transection) was 81.4%.
Work on `O=C(OCCCc1cccnc1)[C@@H]1CCCN1C(=S)NC1CCCCC1` [I] yielded a Clearance [2] of 8.0 µL/min.
In the case of `CCC(C)(C)C(=O)C(=O)N1CCC[C@H]1C(=O)CCCCc1cccnc1` [J], the Clearance [2] is reported as 1.5 µL/min.
For `CCC(C)(C)C(=O)C(=O)N1CCCC[C@H]1C(=O)SCCC(c1ccccc1)c1ccccc1` [K], the Clearance [2] was 4.5 µL/min.
In the case of `CCC(C)(C)C(=O)C(=O)N1CCC[C@H]1C(=O)O` [L], the “RT97 + RGC axon density 14 days after ON transection (% ON axons rescued)” value [1] is reported as 7.8%±3.0%SEM and the Clearance [2] is reported as 5.2 µL/min.
In the case of `CCC(C)(C)C(=O)C(=O)N1CCC[C@H]1C(=O)SCCC(c1ccccc1)c1ccccc1` [M], the “RT97 + RGC axon density 14 days after ON transection (% ON axons rescued)” value [1] is reported as −6.3%±3.9%SEM and the Clearance [2] is reported as 12.5 µL/min.
`CN(C)C(=O)N1CCC[C@H]1C(=O)SCCCc1ccccc1` [N] showed a Clearance [2] of 21.9 µL/min.
